Laboratory results as given in patent publication US20240287074A1, “SALTS AND CRYSTALS” (Kinoxis Therapeutics Pty Ltd, priority 2020, published 2024).
Converted amounts (≈) assume the structure as drawn. “Also recorded” adds a separate entry of the source. Where a name gives a salt, the structure may show the parent alone. Read-outs that look alike come from different tables or passages of the source.

What was measured:
Assay type in all cases: physicochemical
[1] = Thermodynamic solubility in PBS buffer pH 7.4; details: for solubility: PBS buffer at pH 7.4, ambient temperature, about 24 hours, HPLC; for pH (t = 24 h): mother liquor of PBS pH 7.4 slurry
Description: The thermodynamic solubility of freebase (example 1), phosphate form 1 (example 3) and L-tartrate form 1 (example 5) were assessed in phosphate buffered saline (PBS) buffer at pH 7.4 according to the following procedure: • Approximately 30 mg of each form was weighed into 2 mL glass vials. • 100 μL of buffer solution was added to each vial until partial dissolution was observed. • The observed slurries were agitated at ambient temperature for about 24 hours. • The samples were collected, and observations were recorded. • The samples were filtered via centrifugation. • The pH of the mother liquors were recorded. • The concentration of the mother liquors were recorded by HPLC.

[2] = Dynamic / gravimetric vapour sorption (DVS/GVS) hygroscopicity; details: for hygroscopicity: DVS, 25° C.
Description: Approximately, 10-20 mg of sample was placed into a mesh vapour sorption balance pan and loaded into a DVS Intrinsic dynamic vapour sorption balance by Surface Measurement Systems. The sample was subjected to a ramping profile from 40-90% relative humidity (RH) at 10% increments, maintaining the sample at each step until a stable weight had been achieved (dm/dt 0.004%, minimum step length 30 minutes, maximum step length 500 minutes) at 25° C. After completion of the sorption cycle, the sample was dried using the same procedure to 0% RH and then a second sorption cycle back to 40% RH. Two cycles were performed. The weight change during the sorption/desorption cycles were plotted, allowing for the hygroscopic nature of the sample to be determined. XRPD analysis was then carried out on any solid retained.
Approximately 10-20 mg of sample was placed into a mesh vapour sorption balance pan and loaded into an IGASorp Moisture Sorption Analyser balance by Hiden Analytical. The sample was subjected to a ramping profile from 40-90% relative humidity (RH) at 10% increments, maintaining the sample at each step until a stable weight had been achieved (98% step completion, minimum step length 30 minutes, maximum step length 60 minutes) at 25° C. After completion of the sorption cycle, the sample was dried using the same procedure to 0% RH, and finally taken back to the starting point of 40% RH. Two cycles were performed. The weight change during the sorption/desorption cycles were plotted, allowing for the hygroscopic nature of the sample to be determined.

[3] = 1-week stability studies (XRPD, HPLC)
Description: The isolated 1-methyl-1,4,5,10-tetrahydropyrazolo[3,4-b][1,5]benzodiazepine freebase was characterized by TG/DTA, DSC, DVS with post-DVS, XRPD, HPLC, ^1H NMR and LC-MS, as per the methods detailed above. The 1-methyl-1,4,5,10-tetrahydropyrazolo[3,4-b][1,5]benzodiazepine freebase was stored at 40° C./75% relative humidity (RH) for 1 week to determine the stability of the material at increased RH and to identify potential hydrate formation.
One-week stability studies were conducted on the freebase (example 1), phosphate form 1 (example 3) and L-tartrate form 1 (example 5) salts using the following procedures: • Approximately 20 mg of each form was weighed into 3×2 mL glass vials. • One vial for each form was stored under the following conditions for 1-week: • 1. Ambient temperature, light and humidity (unsealed vial) • 2. 40° C./75% RH (unsealed vial) • 3. 80° C. (sealed vial) • The samples were collected after 1-week and observations were made. • The solids were analyzed by XRPD and HPLC.

[4] = Primary salt screen: XRPD pattern after drying and after 40° C./75% RH; details: for Post-Drying (XRPD pattern): oven at 40° C. for about 24 hours; for Post 40° C./75% RH (XRPD pattern): stability chamber at 40° C./75% RH for about 24 hours; for Comments (stability): salt screen summary
Description: The following procedure was used: • Approximately 30 mg of 1-methyl-1,4,5,10-tetrahydropyrazolo[3,4-b][1,5]benzodiazepine freebase was weighed into 5×1.5 mL glass vials. • 300 μL of selected solvent system was added to each vial to form a mobile slurry, and a beige slurry was observed. • 1.05 (or 0.525 for the hemi experiments) equivalents of acid counterion (see Table 1) was added to each sample and initial observations were recorded. • The samples were temperature cycled between ambient and 40° C. in 4-hour cycles for about 72 hours. • The samples were collected, and observations made. • Samples in which solids were observed were filtered via centrifugation and the solids were loaded onto a multi-well XRPD plate and analyzed by XRPD. • Samples in which no solids were observed were uncapped and left undisturbed to allow evaporation at ambient temperature.

[5] = Salt disproportionation studies in deionized water; details: about 24 hours; for salt disproportionation: slurry in deionized water, ambient temperature
Description: (§1) The following procedure was used during the salt disproportionation studies: • Approximately 20 mg of phosphate form 1 (Example 3) and L-tartrate form 1 (Example 5) were weighed into 2 mL glass vials. • Deionized water was added to each sample in 100 μL aliquots until a mobile slurry was observed. • The slurries were agitated at ambient temperature for about 24 hours. • The slurries were collected and filtered via centrifugation. • The isolated solids were analyzed by XRPD. • The pH of the mother liquors were recorded.

[6] = Hydration studies in methanol/water mixtures; details: MeOH/water mixtures, water activity 0.2, 0.6, 0.8, about 24 hours
Description: as §1, with “the hydration” for “the salt disproportionation”, “• Selected methanol/deionized” for “• Deionized”, “water mixtures (see Table 5) were” for “water was”

[7] = 1 week, ambient temperature, light and humidity, 40° C./75% RH, 80° C.

| SMILES | Post-Drying (XRPD pattern) [4] | Post 40° C./75% RH (XRPD pattern) [4] | also measured |
| --- | --- | --- | --- |
| Cn1ncc2c1Nc1ccccc1NC2 [freebase, 1-Methyl-1,4,5,10-tetrahydropyrazolo[3,4-b][1,5]benzodiazepine] | – | – | solubility [1]: 0.3 mg/mL (≈ 1500 µM); pH (t = 24 h) [1]: 7.32; change in form by XRPD post-DVS analysis [2]: No change in form; hygroscopicity by DVS ([2]; above 70% RH): hygroscopic; DVS mass increase ([2]; between 0 and 70% RH): about 0.11%; hygroscopicity by DVS ([2]; between 0 and 70% RH): non-hygroscopic; DVS mass increase ([2]; between 70 and 90% RH): about 2.74%; changes in form or purity ([3]; 1 week at 40° C./75% RH and 80° C.): no changes in form or purity; XRPD diffractogram after storage ([3]; 1 week under ambient conditions (temperature, light, humidity)): An additional peak was observed; changes in pattern/form by XRPD post-storage ([3]; 40° C./75% RH for 1 week): No significant changes in pattern; also recorded: no changes in form; stability under ambient light ([3]; conclusion of 1-week stability study): may be unstable under ambient light; changes in purity by HPLC ([3]; stored under ambient conditions): did not show any significant changes in purity |
| Cn1ncc2c1Nc1ccccc1NC2 [Maleate pattern 1] | Pattern 1 | Pattern 1 | – |
| Cn1ncc2c1Nc1ccccc1NC2 [Isethionate pattern 2] | Pattern 2 | Pattern 3 | – |
| Cn1ncc2c1Nc1ccccc1NC2 [Esylate pattern 1] | Pattern 1 | Pattern 2 | – |
| Cn1ncc2c1Nc1ccccc1NC2 [Napadisylate pattern 1] | Pattern 1 | Pattern 1 | Comments (stability) [4]: Good |
| Cn1ncc2c1Nc1ccccc1NC2 [Sulfate pattern 2] | Pattern 2 | Pattern 2 | – |
| Cn1ncc2c1Nc1ccccc1NC2 [Tosylate pattern 2] | Pattern 2 | Pattern 2 | – |
| Cn1ncc2c1Nc1ccccc1NC2 [Tosylate pattern 3] | Pattern 3 | Pattern 3 | – |
| Cn1ncc2c1Nc1ccccc1NC2 [Mesylate pattern 2] | Pattern 2 | Pattern 1 | – |
| Cn1ncc2c1Nc1ccccc1NC2 [Mesylate pattern 3] | Pattern 3 | Deliquesced | – |
| Cn1ncc2c1Nc1ccccc1NC2 [Edisylate pattern 1] | Pattern 1 | Pattern 2 | Comments (stability) [4]: Good |
| Cn1ncc2c1Nc1ccccc1NC2 [Tosylate pattern 1] | Pattern 1 | Pattern 1 | Comments (stability) [4]: Good |
| Cn1ncc2c1Nc1ccccc1NC2 [Hydrobromide pattern 2] | Pattern 2 | Pattern 2 | – |
| Cn1ncc2c1Nc1ccccc1NC2 [Napsylate pattern 1] | Pattern 1 | Pattern 2 | Comments (stability) [4]: Good |
| Cn1ncc2c1Nc1ccccc1NC2 [Besylate pattern 1] | Pattern 1 | Pattern 1, 2 | – |
| Cn1ncc2c1Nc1ccccc1NC2 [Edisylate pattern 2] | Pattern 2 | Pattern 2 | – |
| Cn1ncc2c1Nc1ccccc1NC2 [Sulfate pattern 3] | Pattern 3 | Pattern 3 | – |
| Cn1ncc2c1Nc1ccccc1NC2 [Esylate pattern 2] | Pattern 2 | Pattern 2 | – |
| Cn1ncc2c1Nc1ccccc1NC2 [Napsylate pattern 2] | Pattern 2 | Pattern 2 | – |
| Cn1ncc2c1Nc1ccccc1NC2 [Mesylate pattern 1] | Pattern 1 | Pattern 1/2 | – |
| Cn1ncc2c1Nc1ccccc1NC2 [Sulfate pattern 1] | Pattern 1 | Pattern 4 | – |
| Cn1ncc2c1Nc1ccccc1NC2 [Isethionate pattern 1] | Pattern 1 | Pattern 3 | – |
| Cn1ncc2c1Nc1ccccc1NC2 [Hydrobromide pattern 1] | Pattern 1 | Pattern 1 | Comments (stability) [4]: Good |
| Cn1ncc2c1Nc1ccccc1NC2 [Napadisylate pattern 2] | Pattern 2 | Pattern 2 | – |
| Cn1ncc2c1Nc1ccccc1NC2 [L-tartrate form 1, L-tartaric acid addition salt of 1-methyl-1,4,5,10-tetrahydropyrazolo[3,4-b][1,5]benzodiazepine] | – | – | thermal stability and hygroscopicity ([4]; conclusion of salt screen): acceptable thermal stability and hygroscopicity; Post-Drying (XRPD pattern) ([4]; listed as Tartrate pattern 1): Pattern 1; Comments (stability) [4]: Good; Post 40° C./75% RH (XRPD pattern) ([4]; listed as Tartrate pattern 1): Pattern 1; solubility [1]: 6.3 mg/mL; pH (t = 24 h) [1]: 3.36; change in form by XRPD post-DVS analysis [2]: No evidence of form changes or hydrate formation; hygroscopicity [2]: slightly hygroscopic; hygroscopicity ([2]; listed as L-tartrate salt): slightly hygroscopic; DVS mass increase ([2]; at 90% RH): about 0.6%; DVS mass increase ([2]; at 90% RH, listed as L-tartrate salt): about 0.6 wt. %; change in form by XRPD post-DVS analysis ([2]; listed as L-tartrate salt): no changes in form; change in XRPD pattern ([5]; material slurried in water): No change in XRPD pattern; salt disproportionation [5]: Salt disproportionation was not observed; salt disproportionation ([5]; listed as L-tartrate): No evidence; changes in form by XRPD [3, 7]: no changes in form; changes in purity by HPLC [3, 7]: did not identify any significant changes in purity; change in XRPD pattern [6]: No change in XRPD pattern; hydrate formation [6]: Hydrate formation was not observed; hydrate formation ([6]; listed as L-tartrate): No evidence |
